In PMC6000956, “Immunomodulatory activities of pixatimod: emerging nonclinical and clinical data, and its potential utility in combination with PD-1 inhibitors” (Journal for Immunotherapy of Cancer, 2018):
Where two headings read alike, the source gives them in different places. Marks after values point to notes of the source that are not given here.

Experiments:
[1] = Toxicokinetics in the 1 month IV toxicology study in beagle dogs; type: in vivo; conditions: dog, plasma
Procedure: A 1 month toxicology study of pixatimod in beagle dogs was performed under OECD Good Laboratory Practice (GLP) to assess the toxicity and toxicokinetic profile of pixatimod with 5 intravenous, short term (approximately 1 h) infusions at three defined dose levels of 2.5, 7.5 and 20 mg/kg weekly over 29 days. Blood samples were collected for toxicokinetic investigation to provide information on the systemic exposure. Parameters monitored included mortality and morbidity, clinical signs, food consumption, body weight and body temperature, ophthalmoscopy and electrocardiographic measurements. Laboratory investigations were performed using haematology (ADVIA 120), coagulation (AMAX Density Plus Coagulometer), clinical chemistry (VITROS 950) and urinalysis (URYXXON 300). At the end of the treatment, all animals were euthanized and subjected to a complete necropsy with selected organs weighed and followed by a detailed histopathology evaluation. Bone marrow smears from the femur and sternum were prepared at necropsy, fixed and stained with May-Grünwald and Giemsa stain for analysis. Blood samples obtained during the Phase Ia monotherapy study (PG545102) were collected weekly and the parameters reported herein were analysed by local hospital laboratories.
Plasma samples were analysed using a LC-MS/MS method as previously described. Pharmacokinetic parameters in animal studies were determined by non-compartmental analyses (NCA) of the mean plasma pixatimod concentration vs time profiles for each dose using the linear trapezoidal method in WinNonlin 5.2.1. For comparison with previous animal studies, exposure data (AUC0-last) in clinical samples were derived using individual subject NCA type exposure parameters from the original plasma concentration data using R (64-bit) Version 3.0.1.

[2] = tested on: 4T1.2 cells; test: Syngeneic 4T1.2 breast cancer model, tumor growth; type: in vivo, Balb/c mice; conditions: day 18
Procedure: (§1) Female Balb/c mice (6–8 weeks) were obtained from the Walter & Eliza Hall Institute (Melbourne, Australia). Animal experiments were performed in accordance with institutional guidelines of the Peter MacCallum Cancer Centre. To determine the utility of pixatimod in combination with a PD-1 checkpoint inhibitor antibody (clone RMP1–14 or isotype control antibody 2A3, Bio-X-Cell, NH, USA), mice were inoculated with 1 × 10^5 4T1.2 cells into the mammary fatpad. One week later, mice with similar sized tumors (mean tumor volume 56 mm^3) were randomised into four groups (n = 6 mice per group): saline + isotype antibody, pixatimod + isotype antibody, saline + anti-PD-1 antibody and pixatimod + anti-PD-1 antibody. Pixatimod was administered at 15 mg/kg IP weekly for 3 weeks (days 1, 8 and 15) and anti-PD-1 or isotype antibody (200 μg) were given IP on days 1, 4, 8, 11 and 15. […]
In the 4T1.2 model, the percentage tumor growth inhibition was determined according to the following formula: 100 × (1-ΔT/ ΔC) where ΔC and ΔT were calculated by subtracting the mean tumor volume in each group on day 1 of treatment from the mean tumor volume on the day of analysis. […] The frequency of clinical observations, and necropsy and histopathology findings, was calculated as applicable. […]

[3] = tested on: 4T1.2 tumors; test: Flow cytometry of immune cells in 4T1.2 tumors and spleens (satellite groups, day 11); type: in vivo, Balb/c mice
Procedure: as §1, with “15. The experiment was ended on day 18 post treatment initiation (25 days post inoculation) due to emerging toxicities in all treatment groups (e.g. piloerection).” for “15.”
Immune cells from the collagenase (Collagenase IV, Worthington Biochemical Corporation, NJ, USA) processed tumors and spleens were analysed by flow cytometry using an LSR II analyser (BD Biosciences). […]

[4] = tested on: NK cells; test: NK cell activation in spleen by route of administration; type: in vivo, C57BL/6 mice; conditions: 20 mg/kg IP, IV or SC, spleens 2 days later; similar magnitude irrespective of route
Procedure: To investigate the effect that pixatimod route of administration has upon the activity of this compound, C57BL/6 mice were treated with pixatimod 20 mg/kg intraperitoneally (IP), intravenously (IV) or subcutaneously (SC) and 2 days later, spleens were isolated to study the activation levels of NK cells for surface expression of CD69 or intracellular expression of IFN-γ. Antibodies were CD3ε (145-2C11), NK1.1 (PK136), CD69 (H1.2F3), IFN-γ (XMG1.2), hamster IgG1 isotype (G235–2356) and rat IgG1 isotype (R3–34) were from BD Biosciences (San Jose, CA, USA). Intracellular staining for IFN-γ was performed following ex vivo stimulation of splenocytes for 4 h with 20 ng/ml PMA and 50 ng/ml ionomycin in the presence of 5 μg/mL brefeldin A. Intracellular staining for IFN-γ was performed following treatment with Cytofix/Cytoperm (BD Biosciences) solution. Flow cytometric data were acquired using a FACSCanto flow cytometer (BD Biosciences), and events were analysed using FlowJo Version 9.9.6 software (TreeStar, Ashland, OR, USA).

[5] = design: method as in PMID 25754234; conditions: Mouse, 15 mg/kg IV (HED 73 mg); cited from earlier work
[6] = tested on: advanced cancer patients; design: method as in PMID 29531325; conditions: cited from earlier work

`CC(C)CCC[C@@H](C)[C@H]1CC[C@H]2[C@@H]3CC[C@H]4C[C@@H](O[C@@H]5O[C@H](COS(=O)(=O)O)[C@@H](O[C@H]6O[C@H](COS(=O)(=O)O)[C@@H](O[C@H]7O[C@H](COS(=O)(=O)O)[C@@H](O[C@H]8O[C@H](COS(=O)(=O)O)[C@@H](OS(=O)(=O)O)[C@H](OS(=O)(=O)O)[C@H]8OS(=O)(=O)O)[C@H](OS(=O)(=O)O)[C@H]7OS(=O)(=O)O)[C@H](OS(=O)(=O)O)[C@H]6OS(=O)(=O)O)[C@H](OS(=O)(=O)O)[C@H]5OS(=O)(=O)O)CC[C@]4(C)[C@H]3CC[C@]12C` [pixatimod] gave an AUC(0-t) ([1]; 2.5 mg/kg, 2.5 mg/kg weekly IV (HED 83 mg), read-out: AUC0-last Week 1) of 697 µg·h/mL, an AUC(0-t) ([1]; 2.5 mg/kg, 2.5 mg/kg weekly IV (HED 83 mg), read-out: AUC0-last Week 4) of 1370 µg·h/mL and an AUC(0-t) ([1]; 7.5 mg/kg, 7.5 mg/kg weekly IV (HED 250 mg), read-out: AUC0-last Week 1) of 1810 µg·h/mL. The AUC(0-t) ([1]; 7.5 mg/kg, 7.5 mg/kg weekly IV (HED 250 mg), read-out: AUC0-last Week 4) was 4940 µg·h/mL, the AUC(0-t) ([1]; 20 mg/kg, 20 mg/kg weekly IV (HED 666 mg), read-out: AUC0-last Week 1) was 6880 µg·h/mL and the AUC(0-t) ([1]; 20 mg/kg, 20 mg/kg weekly IV (HED 666 mg), read-out: AUC0-last Week 4) was 10500 µg·h/mL. For the same compound, the “Tumor growth compared to the vehicle plus isotype antibody (Control) group” value [2] was “significantly inhibited”, the “tumor growth inhibition (%TGI)” value ([2]; pixatimod 15 mg/kg IP weekly x3, antibody 200 μg IP twice weekly) was 68% and the “abundance of CD4+ or CD8+ T cells or NK cells in the spleens compared to control mice” value ([3]; day 11, spleens) was “little or no increase”. The “intratumoral NK cells” value ([3]; pixatimod alone, 4T1.2 tumors) was “didn’t significantly increase”, the “expression of IFN-γ and CD69 on NK cells” value [4] was “increased” and the “AUC0-last Week 1” value [5] was 1358 ^c μg.h/mL. The “dose up to which the compound was well tolerated” value ([6]; IV infusion, monotherapy clinical trial) was “up to 100 mg”, the “patients with treatment emergent adverse events possibly, likely, or certainly related to pixatimod” value ([6]; Phase Ia monotherapy trial) was 20 and the “estimated median duration of SD” value [6] was 57 days. For the same compound, the “patients with stable disease (SD) at 8 weeks by RECIST 1.1” value ([6]; of 16 patients with efficacy assessments) was “six”, the “doses inducing flu-like symptoms in patients” value ([6]; required prophylactic paracetamol) was ≥ 50 mg and the “disease control rate at 8 weeks” value ([6]; six of sixteen assessed) was 38%.
